Numbers after ± are expanded uncertainties.

This is an account of results in the NIST ThermoML archive (doi:10.1021/je700445y).

For data set [1] the following is noted: Liquid; for mass density: 293.15 K, 101.33 kPa; for vapor or sublimation pressure: Ebulliometric method (Recirculating still).
Data set [2] is described as follows: refractive index (Na D-line) (dimensionless). To be noted: 293.15 K; 101.33 kPa; Liquid; Standard Abbe refractometry.

As usually defined, the mass density is mass per unit of volume. A word on the vapor or sublimation pressure: it is the equilibrium pressure above the liquid or solid. Broadly, the refractive index is the speed of light in vacuum divided by its phase velocity in the sample. With `CCCCCC` [hexane], in data set [1], the mass density was determined as 660 ± 2 kg/m3. In addition, the “vapor or sublimation pressure” value in data set [1] (341.8 K) worked out at 101.33 ± 0.53 kPa. Moreover, the refractive index in data set [2] was determined as 1.37486 ± 0.00075.

For `CCCCCCCC` [octane], the mass density in data set [1] came to 708 ± 1 kg/m3. Moreover, in data set [1] (398.96 K), the “vapor or sublimation pressure” value is 101.33 ± 0.53 kPa. Moreover, the refractive index in data set [2] was found to be 1.3965 ± 0.00075.

Turning to `C=CCCCCCCCC` [1-decene], the mass density in data set [1] was found to be 741 ± 1 kg/m3. Moreover, the “vapor or sublimation pressure” value in data set [1] (443.8 K) is 101.33 ± 0.52 kPa. In addition, in data set [2], the refractive index was 1.4214 ± 0.00073.
